Measured values taken from DBAASP.
≈ marks a conversion by molar mass, not a printed value.

How the values were obtained:
Assay in all cases: ≥ marks a high value that may be exact or a test limit, other limits are often not marked, values filed in µg/mL are converted to µM
[1] = tested on: Pseudomonas aeruginosa PAK
[2] = tested on: Streptococcus gordonii Challis DL1
[3] = tested on: Streptococcus sobrinus ATCC 33478
Staphylococcus aureus = tested on: Staphylococcus aureus
[4] = tested on: Streptococcus sanguinis NY101
Enterococcus faecalis = tested on: Enterococcus faecalis
Escherichia coli W3110 = tested on: Escherichia coli W3110
[5] = tested on: Streptococcus mutans UA159
[6] = tested on: Streptococcus mitis ATCC 903
[7] = tested on: Klebsiella pneumoniae ESBL 63575
[8] = tested on: Enterococcus faecalis W61950
[9] = tested on: Escherichia coli ESBL 63103
[10] = tested on: Staphylococcus aureus C623
[11] = tested on: Enterococcus faecium mic80
[12] = tested on: Pseudomonas aeruginosa H1027
Pseudomonas aeruginosa 9 = tested on: Pseudomonas aeruginosa 9
[13] = tested on: Enterobacter cloacae 218R
[14] = tested on: Pseudomonas aeruginosa PAO1 H103
[15] = tested on: Pseudomonas aeruginosa H103
[16] = tested on: Klebsiella pneumoniae ESBL 61962
[17] = tested on: Enterococcus faecium t62764
[18] = tested on: Stenotrophomonas maltophilia ATCC 13637
[19] = tested on: Pseudomonas aeruginosa 198
[20] = tested on: Staphylococcus aureus ATCC 25923
[21] = tested on: Staphylococcus epidermidis
Escherichia coli UB1005 = tested on: Escherichia coli UB1005
Candida albicans = tested on: Candida albicans
[22] = tested on: Enterococcus faecalis ATCC 29212
[23] = tested on: Pseudomonas aeruginosa H1030
[24] = tested on: Escherichia coli ESBL 64771
[25] = tested on: Salmonella enterica serovar Typhimurium
[26] = tested on: Candida albicans KCTC 7965
[27] = tested on: Candida tropicalis KCTC 1925
[28] = tested on: Staphylococcus aureus KCTC 1928
[29] = tested on: Micrococcus luteus KCTC 3063
[30] = tested on: Escherichia coli K-12 594
Enterococcus sp. = tested on: Enterococcus sp.
[31] = tested on: Bacillus subtilis KCTC 3068
[32] = tested on: Trichosporon beigelii KCTC 7707
[33] = tested on: Candida albicans TIMM 1768
[34] = tested on: Saccharomyces cerevisiae KCTC 7296
[35] = tested on: Lactococcus lactis subsp. cremoris I116
[36] = tested on: Micrococcus luteus ATCC 4698
[37] = tested on: Escherichia coli PCM 2057
[38] = tested on: Streptococcus gordonii DL1
[39] = tested on: Streptococcus mutans comD

In the case of C[C@@H](O)[C@H](NC(=O)[C@H](CO)NC(=O)[C@H](Cc1c[nH]c2ccccc12)NC(=O)[C@H](Cc1c[nH]c2ccccc12)NC(=O)[C@H](CO)NC(=O)[C@H](Cc1cnc[nH]1)NC(=O)[C@H](Cc1c[nH]c2ccccc12)NC(=O)[C@@H](N)Cc1c[nH]c2ccccc12)C(=O)N[C@@H](Cc1c[nH]c2ccccc12)C(N)=O [WWHSWWSTW], the MIC [1] is reported as at least 91.8 µM, the MIC [2] is reported as at least 91.8 µM and the MIC [3] is reported as at least 91.8 µM. For the same molecule, the MIC (Staphylococcus aureus) was over 91.8 µM, the MIC [4] was at least 91.8 µM and the MIC (Enterococcus faecalis) was at least 91.8 µM. The MIC (Escherichia coli W3110) was at least 91.8 µM, the MIC [5] was at least 91.8 µM and the MIC [6] was at least 91.8 µM.

Molecule CC[C@H](C)[C@H](NC(=O)[C@@H](N)CCCCN)C(=O)N[C@@H](Cc1c[nH]c2ccccc12)C(=O)N[C@@H](Cc1c[nH]c2ccccc12)C(=O)N[C@@H](Cc1c[nH]c2ccccc12)C(=O)N[C@@H](Cc1c[nH]c2ccccc12)C(=O)N[C@@H](CCCN=C(N)N)C(=O)N[C@@H](CCCCN)C(=O)N[C@@H](CCCN=C(N)N)C(=O)O [KIWWWWRKR] has an MIC [7] of 22.1 µM (≈ 32 µg/mL), an MIC [8] of at least 45 µM and an MIC [9] of 5.75 µM (≈ 8.3 µg/mL). The MIC [10] was 2.84 µM (≈ 4.1 µg/mL), the MIC [11] was 2.84 µM (≈ 4.1 µg/mL) and the MIC [12] was 2.84 µM (≈ 4.1 µg/mL). The MIC (Pseudomonas aeruginosa 9) was 22.1 µM (≈ 32 µg/mL), the MIC [13] was at least 45 µM and the MIC [14] was 2.84 µM (≈ 4.1 µg/mL). For the same molecule, the MIC [15] was at least 42.3 µM, the MIC [16] was at least 90 µM and the MIC [17] was 0.692 µM (≈ 1 µg/mL). For the same molecule, the MIC [18] was 1.45 µM (≈ 2.1 µg/mL), the MIC [19] was 11.8 µM (≈ 17 µg/mL) and the MIC [20] was 2.84 µM (≈ 4.1 µg/mL). It also gave an MIC [21] of 1.3 µM (≈ 1.88 µg/mL), an MIC (Escherichia coli UB1005) of 5.3 µM (≈ 7.66 µg/mL) and an MIC (Candida albicans) of 10.6 µM (≈ 15.3 µg/mL). It also gave an MIC [22] of 11.8 µM (≈ 17 µg/mL), an MIC [23] of 5.75 µM (≈ 8.3 µg/mL) and an MIC [24] of 2.84 µM (≈ 4.1 µg/mL). For the same molecule, the MIC [25] was 10.6 µM (≈ 15.3 µg/mL).

Work on CC[C@H](C)[C@H](NC(=O)[C@H](CCCCN)NC(=O)[C@H](CCCCN)NC(=O)[C@H](CC(C)C)NC(=O)[C@H](C)NC(=O)[C@H](CCCN=C(N)N)NC(=O)[C@H](CCCCN)NC(=O)CNC(=O)[C@H](CC(C)C)NC(=O)[C@H](CCCN=C(N)N)NC(=O)[C@H](CC(C)C)NC(=O)[C@H](C)NC(=O)[C@H](CC(C)C)NC(=O)CNC(=O)[C@H](CC(N)=O)NC(=O)[C@H](CC(C)C)NC(=O)[C@H](CC(C)C)NC(=O)CN)C(=O)N[C@H](C(=O)N[C@@H](CCCCN)C(=O)N[C@@H](CCCN=C(N)N)C(=O)N[C@@H](CC(C)C)C(=O)N[C@@H](CS)C(=O)N[C@@H](CCCN=C(N)N)C(=O)O)[C@@H](C)CC [GLLNGLALRLGKRALKKIIKRLCR] yielded an MIC [26] of 18.5 µM (≈ 50 µg/mL), an MIC [27] of 1.15 µM (≈ 3.12 µg/mL) and an MIC [28] of 9.24 µM (≈ 25 µg/mL). The MIC (Staphylococcus aureus) was 9.24 µM (≈ 25 µg/mL), the MIC [29] was 0.577 µM (≈ 1.56 µg/mL) and the MIC [30] was 1.15 µM (≈ 3.12 µg/mL). The MIC (Enterococcus sp.) was 9.24 µM (≈ 25 µg/mL) and the MIC [31] was 1.15 µM (≈ 3.12 µg/mL).

CC[C@H](C)[C@H](NC(=O)[C@@H](NC(=O)[C@@H](N)CCCNC(=N)N)[C@@H](C)CC)C(=O)N[C@@H](CC(=O)O)C(=O)N[C@@H](CC(C)C)C(=O)N[C@@H](CC(C)C)C(=O)N[C@@H](Cc1c[nH]c2ccccc12)C(=O)N[C@@H](CCCNC(=N)N)C(=O)N[C@H](C(=O)N[C@@H](CCCNC(=N)N)C(=O)N[C@@H](CCCNC(=N)N)C(=O)N1CCC[C@H]1C(=O)N[C@@H](Cc1c[nH]c2ccccc12)C(=O)N[C@@H](CCCCN)C(=O)N1CCC[C@H]1C(=O)N[C@@H](CCCCN)C(=O)N[C@@H](Cc1ccccc1)C(=O)N[C@H](C(=O)N[C@H](C(=O)N[C@H](C(=O)N[C@@H](Cc1c[nH]c2ccccc12)C(=O)N[C@H](C(=O)N[C@H](C=O)CCCNC(=N)N)C(C)C)C(C)C)[C@@H](C)O)C(C)C)C(C)C [RIIDLLWRVRRPWKPKFVTVWVR] was tested, and the MIC [32] was 10 µM (≈ 30 µg/mL), the MIC [33] was 14.1 µM (≈ 42.5 µg/mL) and the MIC [34] was 10 µM (≈ 30 µg/mL).

With CC[C@H](C)[C@H](NC(=O)[C@H](CC(C)C)NC(=O)CNC(=O)CNC(=O)[C@@H](NC(=O)[C@H](CCCCN)NC(=O)CNC(=O)[C@H](CC(C)C)NC(=O)[C@@H](NC(=O)[C@H](CC(=O)O)NC(=O)[C@@H](NC(=O)[C@H](CC(C)C)NC(=O)CN)C(C)C)C(C)C)C(C)C)C(=O)N[C@@H](CCCCN)C(=O)N[C@@H](CCCCN)C(=O)N[C@@H](CC(C)C)C(=O)N[C@@H](CC(C)C)C(=O)N1CCC[C@H]1C(N)=O [GLVDVLGKVGGLIKKLLP] the MIC [35] was at least 32 µM.

For CC[C@H](C)[C@H](NC(=O)[C@@H](NC(=O)[C@@H](N)CO)C(C)C)C(=O)NCC(=O)N[C@H]1CSSC[C@@H](C(=O)N[C@@H](Cc2ccccc2)C(=O)N[C@H](C(=O)N[C@@H](CCCCN)C(N)=O)C(C)C)NC(=O)[C@@H]2CCCN2C(=O)[C@H](CCCN=C(N)N)NC(=O)[C@@H]2CCCN2C(=O)[C@@H]2CCCN2C(=O)[C@H]([C@@H](C)CC)NC(=O)[C@H](CO)NC(=O)[C@H](CCCCN)NC(=O)[C@H]([C@@H](C)O)NC(=O)[C@H](Cc2c[nH]c3ccccc23)NC1=O [SVIGCWTKSIPPRPCFVK], the MIC [36] was at least 74.3 µM and the MIC [37] was at least 495 µM.

Work on NCCCC[C@H](NC(=O)[C@H](Cc1c[nH]c2ccccc12)NC(=O)[C@H](Cc1ccccc1)NC(=O)[C@H](CCCCN)NC(=O)[C@H](CCCCN)NC(=O)[C@@H](N)Cc1ccccc1)C(=O)N[C@@H](Cc1c[nH]c2ccccc12)C(=O)N[C@@H](Cc1ccccc1)C(=O)N[C@@H](CCCN=C(N)N)C(=O)N[C@@H](CCCN=C(N)N)C(=O)N[C@@H](Cc1ccccc1)C(=O)O [FKKFWKWFRRF] yielded an MIC [38] of 20 µM (≈ 33.5 µg/mL), an MIC [4] of at least 40 µM and an MIC [39] of 6.5 µM (≈ 10.9 µg/mL). It also gave an MIC [5] of 7 µM (≈ 11.7 µg/mL).
